# In the supplement of paper PMC10307832:
# Compound: O=C(NC1CCNCC1)c1n[nH]cc1NC(=O)c1c(Cl)cccc1Cl [AT-7519] + COc1cccc2cc(-c3nc([C@H]4CC[C@H](C(=O)O)CC4)n4ncnc(N)c34)[nH]c12 [OSI-027] (partner 0.5 µM)
# Assay: relative viability (nuclei count vs DMSO), 5 days (fraction); higher = more cells survive
# Details: first compound 0.01 µM
# In short: (§1)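 Medians of duplicate plates are given as relative viability. That measure is the nuclei count in treated wells divided by the count in vehicle wells. Counts were taken on 4× images of lung cancer cell lines in 1536-well plates, 5 days after pin-tool dosing the day after seeding with one drug alone or a fixed anchor-drug dose plus five library-drug doses (not always all listed) in √10 steps.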
row,Cell Line,relative viability
1,BEN,0.541
2,HARA,0.425
3,HCC-78,0.386
4,NCI-H322M,0.539
5,LCLC-97TM1,0.566
6,NCI-H2009,0.638
7,A-427,0.419
8,NCI-H661,0.671
9,NCI-H1734,0.521
10,NCI-H460,0.906
11,NCI-H2347,0.457
12,SK-LU-1,0.356
13,201T,0.694
14,NCI-H1915,0.406
15,HCC-827,0.842
16,LXF-289,0.758
17,NCI-H23,0.475

row,Cell Line,relative viability
1,NCI-H647,0.538
2,CAL-12T,0.673
3,NCI-H1651,0.764
4,EPLC-272H,0.283
5,NCI-H2228,0.517
6,NCI-H1355,0.407
7,NCI-H3122,1.09
8,NCI-H1437,0.755
9,NCI-H1755,0.66
10,NCI-H2023,0.435
11,HCC-15,0.673
12,PC-14,0.725
13,EKVX,0.725
14,LC-2-ad,0.733
15,NCI-H1563,0.737
16,NCI-H1944,0.436

# Same assay, conditions: first compound 0.03162 µM
row,Cell Line,relative viability
1,BEN,0.278
2,HARA,0.36
3,HCC-78,0.395
4,NCI-H322M,0.521
5,LCLC-97TM1,0.616
6,NCI-H2009,0.665
7,A-427,0.389
8,NCI-H661,0.694
9,NCI-H1734,0.543
10,NCI-H460,0.686
11,NCI-H2347,0.389
12,SK-LU-1,0.315
13,201T,0.739
14,NCI-H1915,0.598
15,HCC-827,0.72
16,LXF-289,0.666
17,NCI-H23,0.521

row,Cell Line,relative viability
1,NCI-H647,0.675
2,CAL-12T,0.649
3,NCI-H1651,0.734
4,EPLC-272H,0.296
5,NCI-H2228,0.586
6,NCI-H1355,0.471
7,NCI-H3122,0.871
8,NCI-H1437,0.938
9,NCI-H1755,0.655
10,NCI-H2023,0.347
11,HCC-15,0.632
12,PC-14,0.701
13,EKVX,0.536
14,LC-2-ad,0.866
15,NCI-H1563,0.794
16,NCI-H1944,0.402

# Same assay, conditions: first compound 0.3162 µM
row,Cell Line,relative viability
1,BEN,0.55
2,HARA,0.523
3,HCC-78,0.349
4,NCI-H322M,0.422
5,LCLC-97TM1,0.422
6,NCI-H2009,0.587
7,A-427,0.477
8,NCI-H661,0.564
9,NCI-H1734,0.445
10,NCI-H460,0.288
11,NCI-H2347,0.358
12,SK-LU-1,0.282
13,201T,1.01
14,NCI-H1915,0.521
15,HCC-827,0.705
16,LXF-289,0.706
17,NCI-H23,0.664

row,Cell Line,relative viability
1,NCI-H647,0.676
2,CAL-12T,0.296
3,NCI-H1651,0.598
4,EPLC-272H,0.264
5,NCI-H2228,0.469
6,NCI-H1792,0.869
7,NCI-H1355,0.374
8,NCI-H3122,0.357
9,NCI-H1437,0.824
10,NCI-H1755,0.705
11,NCI-H2023,0.351
12,HCC-15,0.54
13,PC-14,0.691
14,EKVX,0.687
15,LC-2-ad,0.862
16,NCI-H1563,0.722
17,NCI-H1944,0.367

# Same assay, conditions: first compound 1 µM
row,Cell Line,relative viability
1,BEN,0.412
2,HARA,0.423
3,HCC-78,0.341
4,NCI-H322M,0.428
5,LCLC-97TM1,0.21
6,NCI-H2009,0.321
7,A-427,0.187
8,NCI-H661,0.333
9,NCI-H1734,0.397
10,NCI-H460,0.0567
11,NCI-H2347,0.229
12,SK-LU-1,0.168
13,201T,0.812
14,NCI-H1915,0.394
15,HCC-827,0.539
16,LXF-289,0.737
17,NCI-H23,0.396

row,Cell Line,relative viability
1,NCI-H647,0.471
2,CAL-12T,0.135
3,NCI-H1651,0.59
4,EPLC-272H,0.206
5,NCI-H2228,0.446
6,NCI-H1792,0.791
7,NCI-H1355,0.374
8,NCI-H3122,0.152
9,NCI-H1437,0.645
10,NCI-H1755,0.699
11,NCI-H2023,0.203
12,HCC-15,0.34
13,PC-14,0.125
14,EKVX,0.709
15,LC-2-ad,0.514
16,NCI-H1563,0.728
17,NCI-H1944,0.328

# Compound: C1=CC2=C(C=C(C(=C2N=C1)O)N=NC3=CC4=C(C=C3)C=C(C=C4)S(=O)(=O)O)S(=O)(=O)O + C[C@@H](Oc1cc(-c2cnn(C3CCNCC3)c2)cnc1N)c1c(Cl)ccc(F)c1Cl [Crizotinib] (partner 1 µM)
# Assay: as above
# Details: first compound 0.08 µM
# In short: as §1
row,Cell Line,relative viability
1,BEN,1.14
2,HARA,1.1
3,HCC-78,0.388
4,NCI-H322M,1.12
5,NCI-H2009,1.14
6,A-427,1.05
7,NCI-H661,1.03
8,NCI-H1734,0.733
9,NCI-H460,1.16
10,NCI-H2347,0.691
11,SK-LU-1,1
12,201T,1.1
13,NCI-H1915,0.973
14,HCC-827,0.97
15,LXF-289,0.886
16,NCI-H23,0.539
17,NCI-H647,1.36
18,CAL-12T,0.69
19,NCI-H1651,0.968
20,EPLC-272H,1.14
21,NCI-H2228,0.399
22,NCI-H1792,1.15
23,NCI-H1355,1.16
24,NCI-H3122,0.285
25,NCI-H1437,1.07
